15 compounds from US20080139558A1, “QUINOLONES USEFUL AS INDUCIBLE NITRIC OXIDE SYNTHASE INHIBITORS” (KALYPSYS, INC., priority 2006, published 2008) can be followed below.

The target of this assay is T1, human iNOS (Homo sapiens, UniProt P35228).
T1 construct: expressed in transfected cells; host or cells: HEK293
Briefly: DAN assay of nitric oxide production (hiNOS). Format: cell-based. The conditions noted are these: enzyme expressed in HEK293 cells transiently transfected with human iNOS. A digest of the protocol: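 Human iNOS transiently expressed in HEK293 cells; NO production quantified as nitrite via 2,3-diaminonaphthalene reaction forming fluorescent naphthotriazole.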

Molecules are shown by their SMILES. A value given as a limit tells only on which side of the number the result lay.

T1 sequence (P35228 whole entry): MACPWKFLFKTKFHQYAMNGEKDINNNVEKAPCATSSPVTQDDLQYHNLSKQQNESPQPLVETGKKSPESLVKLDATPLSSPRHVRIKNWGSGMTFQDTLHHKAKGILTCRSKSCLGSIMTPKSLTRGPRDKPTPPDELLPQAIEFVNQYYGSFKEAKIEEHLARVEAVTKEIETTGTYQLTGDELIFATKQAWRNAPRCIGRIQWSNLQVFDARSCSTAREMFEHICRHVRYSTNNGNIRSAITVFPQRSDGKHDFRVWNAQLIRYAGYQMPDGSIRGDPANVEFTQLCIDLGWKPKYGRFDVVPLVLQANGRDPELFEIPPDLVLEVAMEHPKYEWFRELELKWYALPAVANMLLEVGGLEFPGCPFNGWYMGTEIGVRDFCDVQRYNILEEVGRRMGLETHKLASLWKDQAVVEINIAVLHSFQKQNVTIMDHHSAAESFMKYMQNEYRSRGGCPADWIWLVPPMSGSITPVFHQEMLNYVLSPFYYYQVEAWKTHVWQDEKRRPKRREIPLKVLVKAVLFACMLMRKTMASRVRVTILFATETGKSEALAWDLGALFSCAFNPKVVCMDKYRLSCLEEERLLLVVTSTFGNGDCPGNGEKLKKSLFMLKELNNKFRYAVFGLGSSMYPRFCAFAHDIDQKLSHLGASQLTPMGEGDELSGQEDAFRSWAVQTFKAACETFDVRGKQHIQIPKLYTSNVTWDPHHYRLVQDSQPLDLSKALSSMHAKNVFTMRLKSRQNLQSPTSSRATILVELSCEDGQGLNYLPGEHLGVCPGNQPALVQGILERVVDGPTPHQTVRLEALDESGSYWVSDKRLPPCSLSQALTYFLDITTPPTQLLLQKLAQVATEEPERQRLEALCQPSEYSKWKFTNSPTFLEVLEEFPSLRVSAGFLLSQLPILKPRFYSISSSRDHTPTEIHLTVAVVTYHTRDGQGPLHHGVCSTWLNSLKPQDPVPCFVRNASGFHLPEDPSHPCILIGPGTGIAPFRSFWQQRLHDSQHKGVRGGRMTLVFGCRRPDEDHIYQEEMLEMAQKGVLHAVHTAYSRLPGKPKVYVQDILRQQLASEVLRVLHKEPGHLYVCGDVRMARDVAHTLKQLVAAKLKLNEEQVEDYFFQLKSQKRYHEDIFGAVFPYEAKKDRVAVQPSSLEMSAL

Turning to `CC(C)CCc1nc2ccccc2n1Cc1cc(=O)[nH]c2c(F)c(F)ccc12` [Example 211, 7,8-Difluoro-4-((2-isopentyl-1H-benzo[d]imidazol-1-yl)methyl)quinolin-2(1H)-one], the EC50 (commonly the concentration giving half of the maximal effect) is at most 5 µM.
`O=C(c1ccccn1)N(Cc1cc(=O)[nH]c2c(F)cccc12)c1cccc(Cl)c1` [Example 67, N-(3-Chlorophenyl)-N-((8-fluoro-2-oxo-1,2-dihydroquinolin-4-yl)methyl)picolinamide] had an EC50 above 5 µM.
As for `Cc1ccncc1C(=O)N(Cc1c(F)c(=O)[nH]c2c(F)c(F)ccc12)c1cccc(Cl)c1` [Example 116, N-(3-Chlorophenyl)-4-methyl-N-((3,7,8-trifluoro-2-oxo-1,2-dihydroquinolin-4-yl)methyl)nicotinamide], the concentration giving a half-maximal response (EC50) is at most 5 µM.
With `O=C(c1cccnc1)N(Cc1cc(=O)[nH]c2ccccc12)c1ccccc1` [Example 33, N-((2-Oxo-1,2-dihydroquinolin-4-yl)methyl)-N-phenylnicotinamide] the figure was above 5 µM.
`Cn1nnc(C(=O)N(Cc2cc(=O)[nH]c3c(F)c(F)ccc23)c2cccc(Cl)c2)n1` [Example 169] came in with an EC50 of at most 5 µM.
`O=C(c1ccco1)N(Cc1cc(=O)[nH]c2ccccc12)c1cccc(Cl)c1` [Example 14, N-(3-Chlorophenyl)-N-[(2-oxo-1,2-dihydroquinolin-4-yl)methyl]-2-furamide] came in with an EC50 above 5 µM.
The value for `CC(C)c1cn(Cc2cc(=O)[nH]c3c(F)c(F)ccc23)c(-c2ccccc2)n1` [Example 254, 7,8-Difluoro-4-((4-isopropyl-2-phenyl-1H-imidazol-1-yl)methyl)quinolin-2(1H)-one] was at most 5 µM; that for `Cc1ncsc1C(=O)N(Cc1cc(=O)[nH]c2c(F)c(F)ccc12)c1cccc(Cl)c1C` [Example 184, N-(3-Chloro-2-methylphenyl)-N-((7,8-difluoro-2-oxo-1,2-dihydroquinolin-4-yl)methyl)-4-methylthiazole-5-carboxamide] was at most 5 µM; that for `Cc1cccc2c1nc(C(C)C)n2Cc1cc(=O)[nH]c2c(F)c(F)ccc12` [Example 224, 7,8-Difluoro-4-((2-isopropyl-4-methyl-1H-benzo[d]imidazol-1-yl)methyl)quinolin-2(1H)-one] was at most 5 µM.
With `COc1cccc(C(=O)N(Cc2cc(=O)[nH]c3c(F)cccc23)c2cccc(Cl)c2)c1` [Example 61, N-(3-Chlorophenyl)-N-((8-fluoro-2-oxo-1,2-dihydroquinolin-4-yl)methyl)-3-methoxybenzamide] the figure was above 5 µM; with `Cc1ncsc1C(=O)N(Cc1cc(=O)[nH]c2cccc(F)c12)c1cccc(Cl)c1` [Example 111, N-(3-Chlorophenyl)-N-((5-fluoro-2-oxo-1,2-dihydroquinolin-4-yl)methyl)-4-methylthiazole-5-carboxamide], at most 5 µM; with `Cc1ncsc1S(=O)(=O)N(Cc1cc(=O)[nH]c2c(F)cccc12)c1cccc(Cl)c1` [Example 42, N-(3-Chlorophenyl)-N-((8-fluoro-2-oxo-1,2-dihydroquinolin-4-yl)methyl)-4-methylthiazole-5-sulfonamide], at most 5 µM.
Compound `N#Cc1ccccc1C(=O)N(Cc1cc(=O)[nH]c2c(F)cccc12)c1cccc(Cl)c1` [Example 64, N-(3-Chlorophenyl)-2-cyano-N-((8-fluoro-2-oxo-1,2-dihydroquinolin-4-yl)methyl)benzamide] gave an EC50 above 5 µM.
With `O=C(c1cncs1)N(Cc1cc(=O)[nH]c2c(F)cccc12)c1cccc(Cl)c1` [Example 44, N-(3-Chlorophenyl)-N-((8-fluoro-2-oxo-1,2-dihydroquinolin-4-yl)methyl)thiazole-5-carboxamide] the figure was above 5 µM.
The value for `Cc1ncsc1C(=O)N(Cc1cc2cccc(F)c2[nH]c1=O)c1cccc(Cl)c1` [Example 171, N-(3-Chlorophenyl)-N-((8-fluoro-2-oxy-1,2-dihydroquinolin-3-yl)methyl)-4-methylthiazole-5-carboxamide] was above 5 µM.
